Results published in patent US9221900B2, “Methods for identifying safe and functional humanized antibodies” (AC IMMUNE S.A., priority 2010, dated 2015).

Columns and labels:
[1] = tested on: mixed cortical cells from P1 rats; assay: Aβ1-42 oligomer cytotoxicity assay, MTT readout; type: cell-based, rat
Method: FIG. 2 provides graphs and immunocytochemical images corresponding to the experiments described in Example 6.3. […] An MTT assay was used to determine cell viability as described in the Methods section. The means (±SEM) of five independent experiments are shown. *P<0.05, **P<0.01. […] Neurotoxicity following extended Aβ1-42 oligomer treatment was tested by morphological analyses (C).
A non-specific IgG monoclonal antibody was used as a control in all experiments.
Rat primary cortical cultures were prepared from Sprague-Dawley rats (Charles River Laboratories L'Arbresle, France) at post-natal day 1, as described by Meberg and Miller (Meberg and Miller, 2003). Cerebellum and meninges were removed, and cortices were cut into small pieces and dissociated with enzymatic disruption at 37° C. in dissociation buffer (papaine, CaCl2, EDTA, and HEPES; all from Invitrogen, Carlsbad, Calif.). DNase (Invitrogen) was added for 10 min. Following dissociation, dispersed cortical neurons were plated onto poly-L-lysine (0.01%; mol. wt 150,000-300,000; Sigma) coated 6-well, 24-well, or 96-well tissue culture plates. For immunocytochemistry, cells were grown on coated glass coverslips, into 24-well plates. Cells were maintained in Neurobasal media (Invitrogen) without phenol-red, with the addition of L-glutamine (2 mM; Sigma), B27 supplement (Invitrogen), and penicillin/streptomycin (Sigma) in a humidified incubator at 37° C. and 5% CO2. Following 1 h and 30 min in culture, the media was replaced with astrocyte-conditioned medium. After a further 4 days in culture, cell proliferation was blocked by treatment with cytosine arabinoside (Ara-C) at 2.5 μM (Invitrogen). Under these culture conditions, 20% of cells were identified as neurons by NeuN/DAPI staining (not shown). Experiments using mixed cortical cultures were generally performed at days-in-vitro (“DIV”) 6 unless stated otherwise. Enriched microglia prepared from cortex and hippocampus were harvested as described for cortical cultures above. Cortex and hippocampus were put in DMEM containing high glucose and homogenized by pipetting with a 10 mL pipette and then with a syringe. The homogenate was centrifuged for 3 min at 1,000×g, and then resuspended in pre-warmed DMEM containing high glucose containing 10% FCS and penicillin/streptomycin (microglia media). The cell suspension was next transferred to a T75 tissue-culture flask and kept in a humidified incubator at 37° C. and 5% CO2 for 1 week. The flask was shaken to separate microglia from adherent cells, and collected and washed in DMEM. The resulting cells were resuspended in 1 mL microglia media, counted, and plated at 5×10^4 cells/well. To verify microglial enrichment, cells were stained with the astroglial and microglial markers GFAP and Iba1, respectively. Greater than 60% of cells stained positive for Iba1, with no cells staining for both GFAP and Iba1. Pure microglia were prepared from post-natal day 3 CX3CR1-GFP mice (Jackson Laboratories). Cortex and hippocampus were dissected and triturated in DMEM containing high glucose using a 10 mL pipette, and then with an 18 gauge needle. The homogenate was centrifuged for 3 min at 1,000 g, and then resuspended in pre-warmed DMEM containing high glucose, 10% FBS and penicillin/streptomycin (microglia media). The cell suspension was next transferred to a T75 tissue-culture flask and kept in a humidified incubator at 37° C. and 5% CO2 for 7-10 d. Microglia were isolated by shaking, collected and washed in DMEM. The resulting cells were resuspended in 1 mL microglia media, counted, and plated on tissue culture treated glass chamber slides at 5×10^4 cells/well for use in experiments.
The cytotoxicity of Aβ1-42 oligomers was tested on mixed cortical cultures at DIV 5. All antibodies, at a final concentration of 100 μg/mL, were co-incubated with Aβ1-42 oligomers for 30 min in serum-free cell culture medium at 37° C. before treatment of cells. […]

microglia = assay: Confocal imaging of microglial uptake of Aβ1-42 oligomers; type: cell-based, rat; settings: primary cortical microglia
Method: Aβ1-42 oligomers are shown in red, and blue is DAPI staining of DNA to show the microglia itself (A). An apical-to-distal slice was obtained from a three-dimensional image rendered from Z-stacks. Confocal imaging was performed on mixed cortical cells labeled for Aβ (red) and stained with DAPI (blue) as described in the Example Section under Materials and Methods. Microglia were identified and scanned for the maximum fluorescence intensity through a series of confocal stacks representing intracellular locations (B), and the total area of fluorescent signal above a minimum threshold was quantified (C). Each mark on the graph represents the total area of Aβ stained within a single cell. A minimum of 20 cells were analyzed for each treatment condition. Data were compared using one-way ANOVA followed by Tukey post-hoc multiple comparison. Means (±SEM) are shown. […] Red is Iba1 staining, green is HyLite Fluor-488-labeled Aβ1 42, and blue is DAPI staining. […] Statistical analysis was done using one-way ANOVA followed by Tukey post-hoc multiple comparison.
Cells were grown on a glass coverslips. Following treatment, cells were quickly washed with PBS and then fixed with 4% paraformaldehyde for 20 min. After thorough washes, cells were immersed in 100% methanol for 10 min at −20° C. They were then washed again and incubated in a blocking solution, PBS containing 10% normal goat serum for 1 h at room temperature. After an overnight incubation with the primary antibody, cells were washed and incubated for 2 h with the secondary antibody, then washed and mounted on glass slides using ProLong Gold antifade reagent (Invitrogen). Epifluorescence and confocal images were acquired on a LSM 700 inverted microscope from Zeiss, using a 63× lens. Fluorescence intensity was measured in cell bodies delineated by saturated epifluorescence pictures. Z-stacks were rendered into a three-dimensional image using ImageJ 1.42 (National Institutes of Health, freeware) from which an apical to distal slice containing the labeled proteins was obtained. Cells treated with HyLite Fluor-488-tagged Aβ1-42 were treated in the same way except no primary or secondary antibodies were used to label for Aβ1-42.

FcγRIIIa-V158 = target: T1, FcγRIIIa-V158 (Homo sapiens, UniProt P08637, F176V); assay: FcγR binding ELISA, FcγRIIIa-V158; settings: cross-linked IgG mAb
T1 construct: fusion proteins containing the extracellular domain of the receptor γ-chain
T1 sequence (P08637 17-208 F176V): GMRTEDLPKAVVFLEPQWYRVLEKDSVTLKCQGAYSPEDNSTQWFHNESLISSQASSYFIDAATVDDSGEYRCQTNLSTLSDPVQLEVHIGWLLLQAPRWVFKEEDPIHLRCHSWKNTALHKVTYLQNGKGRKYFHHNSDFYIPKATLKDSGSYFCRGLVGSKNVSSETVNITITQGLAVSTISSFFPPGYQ
Method: The ability of these different monoclonal antibody backbones to internalize Aβ1-42 oligomers into microglia was then compared using confocal imaging on Aβ1-42 oligomer treated primary cortical microglia. […] To verify that microglia are indeed the cells taking up Aβ1-42 complexed to monoclonal antibodies, the study was repeated using HiLyte Fluor-488 tagged Aβ1-42 and co-stained for the microglial marker Iba1.
(§1) The binding of test antibodies to a panel of human Fcγ receptors (FcγRs) was measured using enzyme-linked immunosorbent assay (ELISA). Human FcγRs (Genentech, Inc., CA) are fusion proteins containing the extracellular domain of the receptor γ-chain with a Gly/6xHis/glutathione S transferase (GST) polypeptide tag at the C terminus. A monoclonal antibody with human IgG1 framework was used as the positive control (IgG1 control) in this experiment. Plates were coated with a mouse monoclonal anti GST antibody (Genentech, Inc.) in a 0.05 M sodium carbonate buffer (pH 9.6) overnight at 4° C. After blocking with an assay buffer containing phosphate buffered saline (PBS), 0.5% BSA, and 0.05% Tween-20, the plates were incubated with FcγRs at room temperature for 1 h. Human FcγRs were immobilized to the plate via interaction with the anti-GST coating. […] Diluted samples were applied as monomeric forms for the high affinity receptor (FcγRIa), or multimeric forms for the low affinity receptors (FcγRIIa, FcγRIIb, and FcγRIIIa). […] The antibodies bound to the FcγRs were detected with horseradish peroxidase (HRP)-conjugated F(ab′)2 fragment of goat anti human F(ab′)2 (Jackson ImmunoResearch Laboratories; West Grove, Pa.). […] The reaction was terminated with 1 M H3PO4, and absorbance at 450 nm with reference at 650 nm was measured on a plate reader (Molecular Devices, Sunnyvale, Calif.). Binding curves were generated by plotting the mean absorbance values from duplicates of sample dilutions against the respective sample absorbance.

[2] = tested on: human Fcγ receptors (FcγRIa, FcγRIIa, FcγRIIb, FcγRIIIa); assay: FcγR binding ELISA, panel of human Fcγ receptors; settings: cross-linked antibody
Method: FIG. 10 provides graphs and immunocytochemical images corresponding to the experiments described in Example 6.5. […] These findings are consistent with published data for human IgG4 antibodies (Gessner et al., 1998) and IgG1 antibodies carrying the D265A mutation (Shields et al., 2001).
as §1, with “FcγRIIIa). The multimeric forms of test antibodies were generated by cross linking F(ab′)2 fragment of goat anti human κ-chain (MP Biomedicals, Solon, Ohio), with test monoclonal antibody at an approximate molar ratio of 3:1. The plates were incubated with FcγRs at room temperature for 2 h.” for “FcγRIIIa).”

With “MABT-IgG1-D265A: same antigen binding sequences as MABT on human IgG1 backbone carrying a D265A mutation that dramatically reduces FcγR-binding” the “antibody-mediated increase in MTT signal under p38MAPK inhibition” value ([1]; 10 μM Aβ1-42 oligomers, 100 μg/ml antibody, 1 μM SB239063, 24 h) was “no effect”, the “reversal of Aβ1-42 oligomer-mediated toxicity” value ([1]; mixed primary cortical cultures, different IgG backbones) was “only a non-significant trend towards reversal” and the “Aβ1-42 oligomer internalization into microglia, rank order” value (microglia) was “MABT-IgG1>MABT>MABT-IgG1-D265A”. For the same substance, the “binding to FcγRIIIa-V158, hierarchy” value (FcγRIIIa-V158) was “MABT-IgG>MABT>MABT-IgG1-D265A” and the “binding to FcγRs” value [2] was “substantially reduced binding to all the FcγRs”.
